This passage reports IC50 results from patent US20240374595A1, “SUBSTITUTED 1,1'-BIPHENYL COMPOUNDS, ANALOGUES THEREOF, AND METHODS USING SAME” (Arbutus Biopharma Corporation, priority 2018, published 2024).

Sequence of PD-L1 (Q9NZQ7 19-238): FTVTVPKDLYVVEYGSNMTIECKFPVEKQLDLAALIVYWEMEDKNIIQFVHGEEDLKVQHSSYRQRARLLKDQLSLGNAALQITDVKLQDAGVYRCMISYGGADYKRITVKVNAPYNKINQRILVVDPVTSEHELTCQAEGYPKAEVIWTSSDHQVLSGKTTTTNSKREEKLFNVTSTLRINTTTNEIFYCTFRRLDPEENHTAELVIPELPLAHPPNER

The target in this experiment is PD-L1 (Homo sapiens (Human), UniProt Q9NZQ7). Put plainly: PD-L1 HTRF assay (PD-1/PD-L1 interaction). Type of experiment: binding. The note with it: PD-L1 His 6 nM, PD-1 Fc 6 nM; inhibitors 3-fold diluted from 20 μM. The protocol:
PD-L1 small molecule inhibitors were diluted by 3-fold starting from 20 μM and a final concentration of 0.001 μM and added to the well. PD-1 Fc protein was added at the final concentration of 6 nM. PD-L1 His protein, PD-L1 small molecule inhibitors, and PD1 Fc proteins were added to the well in this order, with each 5 μl volume, and were incubated for 15 minutes at room temperature. […] The plate was read using PerkinElmer Envision plate reader and data was analyzed by Prism 6 software.
On the technique in general: Time-resolved FRET reads energy transfer from a long-lived donor to a nearby acceptor.
Turning to “5-(((1,3-dihydroxypropan-2-yl)amino)methyl)-N-(3′-(5-(((2-hydroxyethyl)amino)methyl)picolinamido)-2,2′-dimethyl-[1,1′-biphenyl]-3-yl)picolinamide [Example 36]”, the IC50 was 0.4 nM.

As for `Cc1c(COc2ccc(C3=NCCN3)c(OCc3cccc(C#N)c3)c2)cccc1-c1ccccc1` [Example 1, 3-((2-(4,5-Dihydro-1H-imidazol-2-yl)-5-((2-methyl-[1,1′-biphenyl]-3-yl)methoxy)phenoxy)methyl)benzonitrile], the IC50 came out at 280 nM.

On to `Cc1c(COc2ccc(-c3ncc[nH]3)c(OCc3cccc(C#N)c3)c2)cccc1-c1ccccc1` [Example 2, 3-[[2-(1H-Imidazol-2-yl)-5-[(2-methyl-3-phenyl-phenyl)methoxy]phenoxy]methyl] benzonitrile], for which the IC50 is 20000 nM.

`Cc1c(COc2ccc(C3=NCCN3C)c(OCc3cccc(C#N)c3)c2)cccc1-c1ccccc1` [Example 3, 3-[[2-(1-Methyl-4,5-dihydroimidazol-2-yl)-5-[(2-methyl-3-phenyl-phenyl)methoxy]phenoxy]methyl]benzonitrile] displayed an IC50 of 320 nM.

Compound `Cc1c(COc2ccc(-c3nccn3C)c(OCc3cccc(C#N)c3)c2)cccc1-c1ccccc1` [Example 4, 3-[[2-(1-methylimidazol-2-yl)-5-[(2-methyl-3-phenyl-phenyl)methoxy]phenoxy]methyl]benzonitrile] registered an IC50 of 5400 nM.

As to `Cc1c(COc2ccc(-c3nc(CO)c[nH]3)c(OCc3cccc(C#N)c3)c2)cccc1-c1ccccc1` [Example 5, 3-[[2-[4-(Hydroxymethyl)-1H-imidazol-2-yl]-5-[(2-methyl-3-phenyl-phenyl)methoxy]phenoxy]methyl]benzonitrile], the IC50 was 16000 nM.

With `Cc1c(COc2ccc(C3=NCCN3CCO)c(OCc3cccc(C#N)c3)c2)cccc1-c1ccccc1` [Example 6, 3-[[2-[1-(2-Hydroxyethyl)-4,5-dihydroimidazol-2-yl]-5-[(2-methyl-3-phenyl-phenyl)methoxy]phenoxy]methyl]benzonitrile], the IC50 was 53 nM.

Regarding `Cc1c(COc2ccc(-c3nccn3CCO)c(OCc3cccc(C#N)c3)c2)cccc1-c1ccccc1` [Example 7, 3-[[2-[1-(2-Hydroxyethyl)imidazol-2-yl]-5-[(2-methyl-3-phenyl-phenyl)methoxy]phenoxy]methyl]benzonitrile], inhibition was half-maximal at 1800 nM (IC50).

In turn, `CC(=O)NCc1c[nH]c(-c2ccc(OCc3cccc(-c4ccccc4)c3C)cc2OCc2cccc(C#N)c2)n1` [Example 8, N-[[2-[2-[(3-Cyanophenyl)methoxy]-4-[(2-methyl-3-phenyl-phenyl)methoxy]phenyl]-1H-imidazol-4-yl]methyl]acetamide] registered an IC50 of 19000 nM.

`Cc1c(COc2ccc(C3=NCCCN3)c(OCc3cccc(C#N)c3)c2)cccc1-c1ccccc1` [Example 9, 3-[[5-[(2-Methyl-3-phenyl-phenyl)methoxy]-2-(1,4,5,6-tetrahydropyrimidin-2-yl)phenoxy]methyl]benzonitrile] displayed an IC50 of 150 nM.

In turn, `Cc1c(COc2ccc(C3=NCC(O)CN3)c(OCc3cccc(C#N)c3)c2)cccc1-c1ccccc1` (stereo not drawn) [Example 10, 3-[[2-(5-Hydroxy-1,4,5,6-tetrahydropyrimidin-2-yl)-5-[(2-methyl-3-phenyl-phenyl)methoxy]phenoxy]methyl]benzonitrile] gave an IC50 of 100 nM.

On to `Cc1c(COc2ccc(C3=NCCCN3C)c(OCc3cccc(C#N)c3)c2)cccc1-c1ccccc1` [Example 11, 3-[[2-(1-Methyl-5,6-dihydro-4H-pyrimidin-2-yl)-5-[(2-methyl-3-phenyl-phenyl)methoxy]phenoxy]methyl]benzonitrile], for which the IC50 was determined as 300 nM.

Compound `Cc1c(COc2ccc(C3=NCCCN3CCO)c(OCc3cccc(C#N)c3)c2)cccc1-c1ccccc1` [Example 12, 3-[[2-[1-(2-Hydroxyethyl)-5,6-dihydro-4H-pyrimidin-2-yl]-5-[(2-methyl-3-phenyl-phenyl)methoxy]phenoxy]methyl]benzonitrile] showed an IC50 of 110 nM.

Regarding `Cc1c(COc2ccc(/C(=N/CCO)NCCO)c(OCc3cccc(C#N)c3)c2)cccc1-c1ccccc1` [Example 13, 2-[(3-Cyanophenyl)methoxy]-N,N′-bis(2-hydroxyethyl)-4-[(2-methyl-3-phenyl-phenyl)methoxy]benzamidine], half-maximal inhibition (IC50) required 170 nM.

In turn, `CC(=O)NCC/N=C(\NCCNC(C)=O)c1ccc(OCc2cccc(-c3ccccc3)c2C)cc1OCc1cccc(C#N)c1` [Example 14, N-[2-[[(Z)—N-(2-Acetamidoethyl)-C-[2-[(3-cyanophenyl)methoxy]-4-[(2-methyl-3-phenyl-phenyl)methoxy]phenyl]carbonimidoyl]amino]ethyl]acetamide] yielded an IC50 of 330 nM.

`Cc1c(COc2ccc(C3=NCC(O)CN3)c(OCc3cncc(C#N)c3)c2)cccc1-c1ccccc1` (stereo not drawn) [Example 15, 5-((2-(5-Hydroxy-1,4,5,6-tetrahydropyrimidin-2-yl)-5-((2-methyl-[1,1′-biphenyl]-3-yl)methoxy)phenoxy)methyl)nicotinonitrile] came in with an IC50 of 15 nM.

As to `Cc1c(COc2cc(OCc3cncc(C#N)c3)c(C3=NCC(O)CN3)cc2Cl)cccc1-c1cccc(OCCCN2CCC(O)CC2)c1C` (stereo not drawn) [Example 16, 5-[[4-Chloro-5-[[3-[3-[3-(4-hydroxy-1-piperidyl)propoxy]-2-methyl-phenyl]-2-methyl-phenyl]methoxy]-2-(5-hydroxy-1,4,5,6-tetrahydropyrimidin-2-yl)phenoxy]methyl]pyridine-3-carbonitrile], the IC50 turned out to be 1.2 nM.

Regarding `Cc1c(COc2cc(OCc3cncc(C#N)c3)c(C3=NCCCN3CCO)cc2Cl)cccc1-c1cccc(OCCCN2CCC(O)CC2)c1C` [Example 17, 5-[[4-Chloro-2-[1-(2-hydroxyethyl)-5,6-dihydro-4H-pyrimidin-2-yl]-5-[[3-[3-[3-(4-hydroxy-1-piperidyl)propoxy]-2-methyl-phenyl]-2-methyl-phenyl]methoxy]phenoxy]methyl] pyridine-3-carbonitrile], the IC50 was determined as 1.5 nM.

On to `Cc1c(COc2cc(OCc3cncc(C#N)c3)c(C3=NC(C(=O)O)CCN3)cc2Cl)cccc1-c1cccc(OCCCN2CCC(O)CC2)c1C` (stereo not drawn) [Example 18, 2-[5-Chloro-2-[(5-cyano-3-pyridyl)methoxy]-4-[[3-[3-[3-(4-hydroxy-1-piperidyl)propoxy]-2-methyl-phenyl]-2-methyl-phenyl]methoxy]phenyl]-1,4,5,6-tetrahydropyrimidine-4-carboxylic acid], for which it took 1.2 nM to reach half-maximal inhibition (IC50).

`Cc1c(COc2cc(OCc3cncc(C#N)c3)c(C3=NC(C(=O)O)CN3)cc2Cl)cccc1-c1cccc(OCCCN2CCC(O)CC2)c1C` (stereo not drawn) [Example 19, 2-[5-Chloro-2-[(5-cyano-3-pyridyl)methoxy]-4-[[3-[3-[3-(4-hydroxy-1-piperidyl)propoxy]-2-methyl-phenyl]-2-methyl-phenyl]methoxy]phenyl]-4,5-dihydro-1H-imidazole-4-carboxylic acid] yielded an IC50 of 1.2 nM.

The compound `COC(=O)c1c[nH]c(-c2cc(Cl)c(OCc3cccc(-c4cccc(OCCCN5CCC(O)CC5)c4C)c3C)cc2OCc2cncc(C#N)c2)n1` [Example 20, Methyl 2-(5-chloro-2-((5-cyanopyridin-3-yl)methoxy)-4-((3′-(3-(4-hydroxypiperidin-1-yl)propoxy)-2,2′-dimethyl-[1,1′-biphenyl]-3-yl)methoxy)phenyl)-1H-imidazole-5-carboxylate] gave an IC50 of 10 nM.

For `Cc1c(COc2cc(OCc3cncc(C#N)c3)c(C3=NCC(OCC(=O)O)CN3)cc2Cl)cccc1-c1cccc(OCCCN2CCC(O)CC2)c1C` (stereo not drawn) [Example 21, 2-[[2-[5-Chloro-2-[(5-cyano-3-pyridyl)methoxy]-4-[[3-[3-[3-(4-hydroxy-1-piperidyl)propoxy]-2-methyl-phenyl]-2-methyl-phenyl]methoxy]phenyl]-1,4,5,6-tetrahydropyrimidin-5-yl]oxy] acetic acid], the IC50 is 0.8 nM.

Regarding `Cc1c(COc2cc(OCc3cncc(C#N)c3)c(C3=NCCN3CCO)cc2Cl)cccc1-c1cccc(OCCCN2CCC(O)CC2)c1C` [Example 22, 5-[[4-Chloro-2-[1-(2-hydroxyethyl)-4,5-dihydroimidazol-2-yl]-5-[[3-[3-[3-(4-hydroxy-1-piperidyl)propoxy]-2-methyl-phenyl]-2-methyl-phenyl]methoxy]phenoxy]methyl]pyridine-3-carbonitrile], the IC50 was 3.8 nM.

`Cc1c(COc2cc(OCc3cncc(C#N)c3)c(C3=NCC(O)CN3CCO)cc2Cl)cccc1-c1cccc(OCCCN2CCC(O)CC2)c1C` (stereo not drawn) [Example 23] returned an IC50 of 14 nM.

`Cc1c(COc2cc(OCc3cncc(C#N)c3)c(C3=NCCN3CC(=O)O)cc2Cl)cccc1-c1cccc(OCCCN2CCC(O)CC2)c1C` [Example 24, 2-[2-[5-Chloro-2-[(5-cyano-3-pyridyl)methoxy]-4-[[3-[3-[3-(4-hydroxy-1-piperidyl)propoxy]-2-methyl-phenyl]-2-methyl-phenyl]methoxy]phenyl]-4,5-dihydroimidazol-1-yl]acetic acid] registered an IC50 of 1.1 nM.

With `Cc1c(COc2cc(OCc3cncc(C#N)c3)c(C3=NCC(O)CN3)cc2Cl)cccc1-c1cccc(OCC(CN2CCC(O)CC2)c2ccccc2)c1C` (stereo not drawn) [Example 25, 5-[[4-chloro-5-[[3-[3-[3-(4-hydroxy-1-piperidyl)-2-phenyl-propoxy]-2-methyl-phenyl]-2-methyl-phenyl]methoxy]-2-(5-hydroxy-1,4,5,6-tetrahydropyrimidin-2-yl)phenoxy]methyl]pyridine-3-carbonitrile], the IC50 was 30 nM.

In turn, `Cc1c(COc2cc(OCc3cncc(C#N)c3)c(C3=NCC(O)CN3)cc2Cl)cccc1-c1cccc(OCC(CO)c2ccccc2)c1C` (stereo not drawn) [Example 26, 5-[[4-Chloro-5-[[3-[3-(3-hydroxy-2-phenyl-propoxy)-2-methyl-phenyl]-2-methyl-phenyl]methoxy]-2-(5-hydroxy-1,4,5,6-tetrahydropyrimidin-2-yl)phenoxy]methyl]pyridine-3-carbonitrile] came in with an IC50 of 7.4 nM.

The IC50 is the concentration at which inhibition is half-maximal.
